Where “and” joins values, the source holds several entries; their conditions need not be identical. Identical values can stand only once. Toxic doses and inconclusive results are not listed.
Test system: P388 leukemia ip, CD2F1 mice, survival T/C
Test: NCI In Vivo Anticancer Drug Screen. Data for tumor model P388 Leukemia (intraperitoneal) in CD2F1 (CDF1) mice
Conditions: endpoint: median survival time, higher = longer survival
How it was run: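 Mice carrying the transplanted tumor received test compound or vehicle. Survival was recorded in each group, and the value is the treated-group measurement divided by that of the vehicle-treated control group.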

[1] = dose: 60.0 mg/kg/injection, schedule: Q01DX005 (ip), vehicle: saline with Tween-80
[2] = dose: 120.0 mg/kg/injection, schedule: Q01DX005 (ip), vehicle: saline with Tween-80
[3] = dose: 50.0 mg/kg/injection, schedule: Q01DX009 (ip), vehicle: suspension in saline
[4] = dose: 100.0 mg/kg/injection, schedule: Q01DX009 (ip), vehicle: suspension in saline
[5] = dose: 12.5 mg/kg/injection, schedule: Q01DX009 (ip), vehicle: distilled water + Tween-80
[6] = dose: 25.0 mg/kg/injection, schedule: Q01DX009 (ip), vehicle: distilled water + Tween-80
[7] = dose: 50.0 mg/kg/injection, schedule: Q01DX009 (ip), vehicle: distilled water + Tween-80
[8] = dose: 100.0 mg/kg/injection, schedule: Q01DX009 (ip), vehicle: distilled water + Tween-80

O=C(/C=C/c1ccccc1)OCC12OC1C(O)C1C=COC(OC3OC(CO)C(O)C(O)C3O)C12 (configuration not stated)
T/C (dose: 4.38 mg/kg/injection, schedule: Q01DX005 (ip), vehicle: Klucel (hydroxypropylcellulose) (HPC)): 96 % of control
T/C (dose: 8.75 mg/kg/injection, schedule: Q01DX005 (ip), vehicle: Klucel (hydroxypropylcellulose) (HPC)): 94 % of control
T/C (dose: 17.5 mg/kg/injection, schedule: Q01DX005 (ip), vehicle: Klucel (hydroxypropylcellulose) (HPC)): 97 % of control
T/C (dose: 35.0 mg/kg/injection, schedule: Q01DX005 (ip), vehicle: Klucel (hydroxypropylcellulose) (HPC)): 97 % of control
T/C (dose: 70.0 mg/kg/injection, schedule: Q01DX005 (ip), vehicle: Klucel (hydroxypropylcellulose) (HPC)): 97 % of control
T/C (dose: 100.0 mg/kg/injection, schedule: Q01DX005 (ip), vehicle: Klucel (hydroxypropylcellulose) (HPC)): 95 % of control
T/C (dose: 200.0 mg/kg/injection, schedule: Q01DX005 (ip), vehicle: Klucel (hydroxypropylcellulose) (HPC)): 103 % of control

N#Cc1cn(C2OC(CO)C(O)C2O)c2ncnc(Cl)c12 (configuration not stated)
T/C [1]: 151 % of control and 174 % of control
T/C [2]: 111 % of control

OCC12C=COC1OC2(c1ccccc1)c1ccccc1 (configuration not stated)
T/C (dose: 15.0 mg/kg/injection, schedule: Q01DX005 (ip), vehicle: saline with Tween-80): 100 % of control
T/C (dose: 30.0 mg/kg/injection, schedule: Q01DX005 (ip), vehicle: saline with Tween-80): 95 % of control
T/C [1]: 89 % of control and 98 % of control

O=S(=O)(C(Br)CBr)C(Br)CBr (configuration not stated)
T/C (dose: 6.25 mg/kg/injection, schedule: Q01DX009 (ip), vehicle: saline with Tween-80): 113 % of control
T/C (dose: 12.5 mg/kg/injection, schedule: Q01DX009 (ip), vehicle: saline with Tween-80): 118 % of control
T/C (dose: 25.0 mg/kg/injection, schedule: Q01DX009 (ip), vehicle: saline with Tween-80): 122 % of control

O=C(Oc1ccccc1)OC1CCN(C(=O)Oc2ccccc2)CC1
T/C (dose: 50.0 mg/kg/injection, schedule: Q01DX001 (ip), vehicle: Klucel (hydroxypropylcellulose) (HPC)): 100 % of control
T/C (dose: 100.0 mg/kg/injection, schedule: Q01DX001 (ip), vehicle: Klucel (hydroxypropylcellulose) (HPC)): 102 % of control
T/C (dose: 200.0 mg/kg/injection, schedule: Q01DX001 (ip), vehicle: Klucel (hydroxypropylcellulose) (HPC)): 100 % of control
T/C (dose: 400.0 mg/kg/injection, schedule: Q01DX001 (ip), vehicle: Klucel (hydroxypropylcellulose) (HPC)): 100 % of control

c1cc2nc(c1)CSCc1cc3c(cc1CSCc1cccc(n1)CSC3)CSC2
T/C [3]: 102 % of control
T/C [4]: 94 % of control
T/C (dose: 200.0 mg/kg/injection, schedule: Q01DX009 (ip), vehicle: suspension in saline): 86 % of control

FC(F)(F)c1ccccc1N=Cc1ccc(C=Nc2ccccc2C(F)(F)F)cc1
T/C (dose: 50.0 mg/kg/injection, schedule: Q01DX009 (ip), vehicle: Klucel (hydroxypropylcellulose) (HPC)): 98 % of control
T/C (dose: 100.0 mg/kg/injection, schedule: Q01DX009 (ip), vehicle: Klucel (hydroxypropylcellulose) (HPC)): 91 % of control

COc1ccc(CSC(=S)Nc2cc(Cl)c(Cl)cc2Cl)cc1
T/C (dose: 12.5 mg/kg/injection, schedule: Q01DX009 (ip), vehicle: saline): 88 % of control
T/C (dose: 25.0 mg/kg/injection, schedule: Q01DX009 (ip), vehicle: saline): 97 % of control
T/C (dose: 50.0 mg/kg/injection, schedule: Q01DX009 (ip), vehicle: saline): 99 % of control
T/C [3]: 93 % of control
T/C [4]: 103 % of control

CNC(=O)C1CCC(=O)N1Cc1c[nH]c2ccccc12 (configuration not stated)
T/C [1]: 94 % of control
T/C [2]: 94 % of control
T/C (dose: 240.0 mg/kg/injection, schedule: Q01DX005 (ip), vehicle: saline with Tween-80): 92 % of control

COc1ccc(CCC#N)cc1OC
T/C (dose: 25.0 mg/kg/injection, schedule: Q01DX009 (ip), vehicle: other): 104 % of control
T/C (dose: 50.0 mg/kg/injection, schedule: Q01DX009 (ip), vehicle: other): 105 % of control
T/C (dose: 100.0 mg/kg/injection, schedule: Q01DX009 (ip), vehicle: other): 100 % of control
T/C (dose: 200.0 mg/kg/injection, schedule: Q01DX009 (ip), vehicle: other): 110 % of control

COc1cc2cc[n+](C)c(C)c2cc1OC
T/C [5]: 111 % of control
T/C [6]: 111 % of control and 120 % of control
T/C [7]: 121 % of control and 124 % of control
T/C [8]: 100 % of control and 118 % of control

CCOC(=O)c1[nH]c(=O)[nH]c(=O)c1CBr
T/C [5]: 98 % of control
T/C [6]: 98 % of control
T/C [7]: 98 % of control
T/C [8]: 98 % of control

C/C(=N\O)C1(C)CC=CCC1CO (configuration not stated)
T/C (dose: 100.0 mg/kg/injection, schedule: Q01DX009 (ip), vehicle: saline with Tween-80): 95 % of control
T/C (dose: 200.0 mg/kg/injection, schedule: Q01DX009 (ip), vehicle: saline with Tween-80): 100 % of control
T/C (dose: 400.0 mg/kg/injection, schedule: Q01DX009 (ip), vehicle: saline with Tween-80): 100 % of control

Source: PubChem BioAssay AID330 (DTP/NCI, 2004)
